Results reported in patent US6846505B2, “Anti-oxidant” (Danisco A/S, priority 1999, dated 2005).
One block for each compound: values may come before it.

Columns and labels:
[1] = test system: mushroom polyphenol oxidase (PPO); experiment: Polyphenol oxidase (PPO) inhibition, tyrosine substrate, absorbance at 475 nm; assay type: biochemical; conditions: for OD475 nm (browning product formation): 10 ppm APP, 24° C., pH 6.5
Experimental: Principle and Goal: PPO is one of the enzymes involved in oxidative browning of vegetables and fruits. […] Blank: To 20 μl PPO (20 units, from mushroom. Sigma product. EC 1.14.18.1) was added 0.45 ml water, 0.43 ml phosphate buffer (0.2M Na2HPO4—NaH2PO4, pH6.5), so the final volume was 0.9 ml Control: To 20 μl PPO was added 0.15 ml water, 0.43 ml phosphate buffer (0.2M Na2HPO4—NaH2PO4, pH6.5), then 0.3 ml tyrosine (1 mM, BDH product). Time course progress of the reaction was monitored at room temperature (24° C.) at 475 nm by using a Perkin Elmer UV/VIS Lambda 18 spectrophotometer. Test: To 20 μl PPO was added 0.143 ml water, 7 μl APP (final 10 ppm), 0.430 ml phosphate buffer (0.2M Na2HPO4—NaH2PO4, pH6.5), then 0.3 ml tyrosine (1 mM, BDH product). Time course progress of the reaction was monitored as above. Table 1. Inhibition of 10 ppm APP on polyphenol oxidase (PPO) as indicated by very slow increase at absorbance 475nm compared to control. Higher values at OD475 nm indicate more browning product formation.

apple slices = experiment: Browning of apple slices (Example 1, FIG. 2); conditions: prolonged period, weeks or months, at room temperature
Excerpt: Compounds of the present invention were investigated as an anti-browning agent in vegetable and fruit products.

[2] = LPO method: MDA and 4HNE from oxidation of linoleic acid (OD586 nm); conditions: for OD586 nm of the ascorbate test / OD586 nm of the APP test: 24° C. in the dark for 10 days
Excerpt: (§1) The following five methods were used to evaluate compounds in accordance with the present invention. […] Note: both MDA and 4-HNE are the oxidation products of polyunsaturated fatty acids from lipids. • 3. β-carotene method was used to measure the protection of β-carotene oxidation by lipid peroxide in the presence of an added anti-oxidant. • 4. DPPH (1,1-diphenyl-2-picrylhydrazyl) method was used to measure the radical scavenging activity of an anti-oxidant towards the radical DPPH. • 5. polyphenol oxidase (PPO) method was used to measure the inhibition of polyphenol oxidase in vegetables, fruits and mushrooms.
Principle and Goal: A major area for use of antioxidants in food-related products are their ability to prevent the oxidation of polyunsaturated fatty acids in lipids. The oxidation of lipids and fatty acids is a major problem in food.
Assay Conditions: The assay of MDA and 4HNE was performed by the LPO method, using the assay kit from OXIS International, Inc. (Portland, Oreg., USA) and according to their protocol. The assay mixture for the blank contained linoleic acid and Tween 40. For the tests, APP or sodium ascorbate was added. After incubation at 24° C. in the dark for 10 days, the samples were assayed for MDA and 4HNE contents as indicated by their absorbance at 586 nm as given in Table 3. Higher OD586 nm values indicate higher content of MDA and 4HNE, and therefore more degradation of linoleic acid.

[3] = β-carotene method: de-coloration of beta-carotene by oxygen and oxidative intermediates of linoleic acid (OD470 nm)
Excerpt: as §1
Principle and Goal: Carotenes are one of the pigments which may be used to give a healthy colour to food or drinks. They are therefore used as food colorant. β-Carotene is also the precursor for vitamin A. Carotenoid molecules are highly unsaturated and are prone to oxidative degradation; which is stimulated by light, enzymes, metals, and co-oxidation with lipid hydroperoxides.
In the system used, beta-carotene was exposed to oxygen and the oxidative intermediates of linoleic acid.
The assay was performed according to H. E. Miller (JAOSC (1970) 48: 91). The assay system consisted of beta-carotene, linoleic acid, and Tween 40. In the blank, no anti-oxidant was added, while in the tests, either APP in a concentration of 2.5-25 ppm or sodium ascorbate in a concentration of 100-500 ppm was added. The mixtures were incubated in the dark for the time and temperature indicated (see Table 2.1 and 2.2). The absorbance was then measured at 470 nm. The absorbance provided an indication of beta-carotene content. Lower OD470 nm values indicate more degradation of beta-carotene.

[4] = disclosed tests of reference [3]; cited from earlier work

Inhibition of PPO (in words) [1]: inhibited
Compound: O=c1cc(CO)occ1O [kojic acid]
Prevention of browning of apple slices (apple slices): completely prevent browning

Compound: O=C1O[C@H]([C@@H](O)CO)C([O-])=C1O.[Na+] [Sodium ascorbate, sodium ascorbate, reference compound]
OD586 nm of the ascorbate test ([2]; 100 ppm): 0.279 | OD586 nm of the ascorbate test ([2]; 300 ppm): 0.097 | OD586 nm of the ascorbate test ([2]; 500 ppm): 0.032 | The OD470 nm of the ascorbate test ([3]; 100 ppm, 37° C. for 161 min in the dark): −0.01 | The OD470 nm of the ascorbate test ([3]; 100 ppm, 37° C. for 161 min then 24° C. for 17.5 hours in the dark): −0.006 | The OD470 nm of the ascorbate test ([3]; 300 ppm, 37° C. for 161 min in the dark): 0.096 | The OD470 nm of the ascorbate test ([3]; 300 ppm, 37° C. for 161 min then 24° C. for 17.5 hours in the dark): 0.102 | The OD470 nm of the ascorbate test ([3]; 500 ppm, 37° C. for 161 min in the dark): 0.191 | The OD470 nm of the ascorbate test ([3]; 500 ppm, 37° C. for 161 min then 24° C. for 17.5 hours in the dark): 0.200

Compound: O=C1O[C@H]([C@@H](O)CO)C(O)=C1O [ascorbic acid, reference compound]
Prevention of browning of apple slices (apple slices): unable to do so

Inhibition of PPO (in words) [1]: efficient inhibitor | OD475 nm (browning product formation) ([1]; reaction time 0 min): 0 | OD475 nm (browning product formation) ([1]; reaction time 1 min): 0 | OD475 nm (browning product formation) ([1]; reaction time 3 min): 0 | OD475 nm (browning product formation) ([1]; reaction time 5 min): 0 | OD475 nm (browning product formation) ([1]; reaction time 7 min): 0.0005 | OD475 nm (browning product formation) ([1]; reaction time 9 min): 0.0017 | OD475 nm (browning product formation) ([1]; reaction time 11 min): 0.0033 | OD475 nm (browning product formation) ([1]; reaction time 13 min): 0.0056 | OD475 nm (browning product formation) ([1]; reaction time 15 min): 0.0082 | OD475 nm (browning product formation) ([1]; reaction time 17 min): 0.0122 | OD475 nm (browning product formation) ([1]; reaction time 19 min): 0.0178 | OD475 nm (browning product formation) ([1]; reaction time 20 min): 0.0209
Compound: O=C1C(O)=COC(CO)C1O [APP, 1,5-Anhydro-D-glycero-hex-1-en-3-ulose]
Effect on oxidation of linoleic acid (in words) [2]: able to delay the oxidation of linoleic acid | OD586 nm of the APP test ([2]; 2.5 ppm, higher OD = more MDA and 4HNE): 0.358 | Efficiency in delaying the oxidative degradation of linoleic acid compared with ascorbic acid ([2]; 6.2 ppm APP, FIG. 5): almost as efficient as 300 ppm ascorbic acid | OD586 nm of the APP test ([2]; 6.2 ppm): 0.100 | OD586 nm of the APP test ([2]; 12.5 ppm): 0.084 | Effect on oxidative de-coloration of beta-carotene (in words) [3]: delayed the oxidative de-coloration of beta-carotene | The OD470 nm of the APP test ([3]; 2.5 ppm, 37° C. for 161 min in the dark, lower OD = more degradation): 0.264 | The OD470 nm of the APP tests ([3]; 2.5 ppm, 37° C. for 161 min then 24° C. for 17.5 hours in the dark): 0.173 | The OD470 nm of the APP test ([3]; 6.2 ppm, 37° C. for 161 min in the dark): 0.314 | The OD470 nm of the APP tests ([3]; 6.2 ppm, 37° C. for 161 min then 24° C. for 17.5 hours in the dark): 0.270 | The OD470 nm of the APP test ([3]; 12.5 ppm, 37° C. for 161 min in the dark): 0.322 | The OD470 nm of the APP tests ([3]; 12.5 ppm, 37° C. for 161 min then 24° C. for 17.5 hours in the dark): 0.274 | The OD470 nm of the APP test ([3]; 25 ppm, 37° C. for 161 min in the dark): 0.326 | The OD470 nm of the APP tests ([3]; 25 ppm, 37° C. for 161 min then 24° C. for 17.5 hours in the dark): 0.263 | Effectiveness relative to ascorbic acid in preventing the de-coloration of β-carotene ([3]; FIG. 4): around 100 times | Function as an antibiotic [4]: did not function satisfactorily as an antibiotic
